Data taken from the supplement of paper PMC10307832.

Legend:
Test in all cases: relative viability (nuclei count vs DMSO), 5 days (fraction); higher = more cells survive
A-427 = system: A-427
Summary of the method: (§1)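 Relative viability equals treated-well nuclei counts divided by vehicle-well nuclei counts. Counts came from 4× images of lung cancer cell lines grown in 1536-well plates for 5 days after pin-tool dosing on the day after seeding. Dosing used one drug alone or a fixed anchor-drug dose plus five library-drug doses (not always all listed) in √10 steps, and values are medians of duplicate plates.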

CAL-12T = system: CAL-12T
Summary of the method: as §1

COR-L 105 = system: COR-L 105
Summary of the method: as §1

COR-L23 = system: COR-L23
Summary of the method: as §1

HOP-62 = system: HOP-62
Summary of the method: as §1

LXF-289 = system: LXF-289
Summary of the method: as §1

NCI-H1395 = system: NCI-H1395
Summary of the method: as §1

NCI-H1651 = system: NCI-H1651
Summary of the method: as §1

NCI-H1975 = system: NCI-H1975
Summary of the method: as §1

NCI-H2023 = system: NCI-H2023
Summary of the method: as §1

NCI-H2085 = system: NCI-H2085
Summary of the method: as §1

NCI-H2087 = system: NCI-H2087
Summary of the method: as §1

NCI-H2170 = system: NCI-H2170
Summary of the method: as §1

NCI-H3122 = system: NCI-H3122
Summary of the method: as §1

NCI-H596 = system: NCI-H596
Summary of the method: as §1

NCI-H647 = system: NCI-H647
Summary of the method: as §1

RERF-LC-KJ = system: RERF-LC-KJ
Summary of the method: as §1

SK-MES-1 = system: SK-MES-1
Summary of the method: as §1

In the case of `COCC1(CO)C(=O)C2CCN1CC2` (stereo not given) [PRIMA-1MET] + CC1(C)CCC(c2ccc(Cl)cc2)=C(CN2CCN(c3ccc(C(=O)NS(=O)(=O)c4ccc(N[C@H](CCN5CCOCC5)CSc5ccccc5)c(S(=O)(=O)C(F)(F)F)c4)cc3)CC2)C1 [Navitoclax] (partner 0.5 µM), the relative viability (A-427; first compound 0.2 µM) is reported as 0.884, the relative viability (A-427; first compound 0.6325 µM) is reported as 0.821 and the relative viability (A-427; first compound 2 µM) is reported as 0.961. It also gave a relative viability (A-427; first compound 6.325 µM) of 0.968, a relative viability (A-427; first compound 20 µM) of 1 and a relative viability (CAL-12T; first compound 0.2 µM) of 1.3. The relative viability (CAL-12T; first compound 0.6325 µM) was 1.32, the relative viability (CAL-12T; first compound 2 µM) was 1.15 and the relative viability (CAL-12T; first compound 6.325 µM) was 1.3. It also gave a relative viability (CAL-12T; first compound 20 µM) of 0.583, a relative viability (COR-L 105; first compound 0.2 µM) of 0.826 and a relative viability (COR-L 105; first compound 0.6325 µM) of 0.513. For the same molecule, the relative viability (COR-L 105; first compound 2 µM) was 0.761, the relative viability (COR-L 105; first compound 6.325 µM) was 0.671 and the relative viability (COR-L 105; first compound 20 µM) was 0.211. It also gave a relative viability (COR-L23; first compound 0.2 µM) of 1.1, a relative viability (COR-L23; first compound 0.6325 µM) of 0.93 and a relative viability (COR-L23; first compound 2 µM) of 1.06. For the same molecule, the relative viability (COR-L23; first compound 6.325 µM) was 1.03, the relative viability (COR-L23; first compound 20 µM) was 0.023 and the relative viability (HOP-62; first compound 0.2 µM) was 1.44. The relative viability (HOP-62; first compound 0.6325 µM) was 1.01, the relative viability (HOP-62; first compound 2 µM) was 0.94 and the relative viability (HOP-62; first compound 6.325 µM) was 0.962. The relative viability (HOP-62; first compound 20 µM) was 0.839, the relative viability (LXF-289; first compound 0.2 µM) was 0.966 and the relative viability (LXF-289; first compound 0.6325 µM) was 0.956. For the same molecule, the relative viability (LXF-289; first compound 2 µM) was 0.93, the relative viability (LXF-289; first compound 6.325 µM) was 0.986 and the relative viability (LXF-289; first compound 20 µM) was 0.903. For the same molecule, the relative viability (NCI-H1395; first compound 0.2 µM) was 1.17, the relative viability (NCI-H1395; first compound 0.6325 µM) was 1.49 and the relative viability (NCI-H1395; first compound 2 µM) was 1.02. The relative viability (NCI-H1395; first compound 6.325 µM) was 1.24, the relative viability (NCI-H1395; first compound 20 µM) was 0.44 and the relative viability (NCI-H1651; first compound 0.2 µM) was 1.15. For the same molecule, the relative viability (NCI-H1651; first compound 0.6325 µM) was 1, the relative viability (NCI-H1651; first compound 2 µM) was 0.918 and the relative viability (NCI-H1651; first compound 6.325 µM) was 1.19. For the same molecule, the relative viability (NCI-H1651; first compound 20 µM) was 0.974, the relative viability (NCI-H1975; first compound 0.2 µM) was 1.13 and the relative viability (NCI-H1975; first compound 0.6325 µM) was 1.03. The relative viability (NCI-H1975; first compound 2 µM) was 1.12, the relative viability (NCI-H1975; first compound 6.325 µM) was 1.21 and the relative viability (NCI-H1975; first compound 20 µM) was 0.96. It also gave a relative viability (NCI-H2023; first compound 0.2 µM) of 1.04, a relative viability (NCI-H2023; first compound 0.6325 µM) of 0.999 and a relative viability (NCI-H2023; first compound 2 µM) of 0.992. It also gave a relative viability (NCI-H2023; first compound 6.325 µM) of 1.07, a relative viability (NCI-H2023; first compound 20 µM) of 0.977 and a relative viability (NCI-H2085; first compound 0.2 µM) of 1.2. The relative viability (NCI-H2085; first compound 0.6325 µM) was 1.04, the relative viability (NCI-H2085; first compound 2 µM) was 1.09 and the relative viability (NCI-H2085; first compound 6.325 µM) was 0.734. The relative viability (NCI-H2085; first compound 20 µM) was 0.364, the relative viability (NCI-H2087; first compound 0.2 µM) was 1.03 and the relative viability (NCI-H2087; first compound 0.6325 µM) was 0.901. For the same molecule, the relative viability (NCI-H2087; first compound 2 µM) was 1.22, the relative viability (NCI-H2087; first compound 6.325 µM) was 1.2 and the relative viability (NCI-H2087; first compound 20 µM) was 0.842. It also gave a relative viability (NCI-H2170; first compound 0.2 µM) of 0.621, a relative viability (NCI-H2170; first compound 0.6325 µM) of 0.543 and a relative viability (NCI-H2170; first compound 2 µM) of 0.456. The relative viability (NCI-H2170; first compound 6.325 µM) was 0.622, the relative viability (NCI-H2170; first compound 20 µM) was 0.554 and the relative viability (NCI-H3122; first compound 0.2 µM) was 0.926. It also gave a relative viability (NCI-H3122; first compound 0.6325 µM) of 1.02, a relative viability (NCI-H3122; first compound 2 µM) of 1.05 and a relative viability (NCI-H3122; first compound 6.325 µM) of 1.01. For the same molecule, the relative viability (NCI-H3122; first compound 20 µM) was 0.976, the relative viability (NCI-H596; first compound 0.2 µM) was 1 and the relative viability (NCI-H596; first compound 0.6325 µM) was 0.797. It also gave a relative viability (NCI-H596; first compound 2 µM) of 1.01, a relative viability (NCI-H596; first compound 6.325 µM) of 1.08 and a relative viability (NCI-H596; first compound 20 µM) of 0.982. The relative viability (NCI-H647; first compound 0.2 µM) was 1.15, the relative viability (NCI-H647; first compound 0.6325 µM) was 1 and the relative viability (NCI-H647; first compound 2 µM) was 0.889. The relative viability (NCI-H647; first compound 6.325 µM) was 1.24, the relative viability (NCI-H647; first compound 20 µM) was 0.909 and the relative viability (RERF-LC-KJ; first compound 0.2 µM) was 1.33. The relative viability (RERF-LC-KJ; first compound 0.6325 µM) was 0.929, the relative viability (RERF-LC-KJ; first compound 2 µM) was 0.833 and the relative viability (RERF-LC-KJ; first compound 6.325 µM) was 0.837. For the same molecule, the relative viability (RERF-LC-KJ; first compound 20 µM) was 0.814, the relative viability (SK-MES-1; first compound 0.2 µM) was 1.2 and the relative viability (SK-MES-1; first compound 0.6325 µM) was 1.28. For the same molecule, the relative viability (SK-MES-1; first compound 2 µM) was 1.19, the relative viability (SK-MES-1; first compound 6.325 µM) was 1.27 and the relative viability (SK-MES-1; first compound 20 µM) was 1.23.
